Measurements published in patent US20230278972A1, “SUBSTITUTED HALOALKYL SULFONANILIDE HERBICIDES” (FMC Corporation, priority 2020, published 2023).

Tests used:
Format in all cases: in vivo
corn (Zea mays) [1] = test: Test A1 preemergence, corn
Description: (§1) Seeds of plant species selected from, blackgrass (Alopecurus myosuroides), corn (Zea mays), Foxtail, Giant (giant foxtail, Setaria faberi), goosegrass (Eleusine indica), kochia (Bassia scoparia), Oat, Wild (wild oat, Avena fatua), Pigweed, Palmer (palmer amaranth, palmer pigweed, Amaranthus palmeri), ragweed (common ragweed, Ambrosia artemisiifolia), Ryegrass, Italian (Italian ryegrass, Lolium multiflorum), soybean (Glycine max), and wheat (Triticum aestivum) were planted into a blend of loam soil and sand and treated preemergence with a directed soil spray using test chemicals formulated in a non-phytotoxic solvent mixture which included a surfactant. At the same time, plants selected from these crop and weed species and also galium (catchweed bedstraw, Galium aparine) and horseweed (Erigeron canadensis) were planted in pots containing the same blend of loam soil and sand and treated with postemergence applications of test chemicals formulated in the same manner. Plants ranged in height from 2 to 10 cm and were in the one- to two-leaf stage for the postemergence treatment. […] A dash (-) response means no test result.

[2] = system: Foxtail, Giant (giant foxtail, Setaria faberi); test: Test A1 preemergence, Foxtail, Giant
Description: as §1

[3] = system: goosegrass (Eleusine indica); test: Test A1 preemergence, goosegrass
Description: as §1

kochia (Bassia scoparia) [4] = test: Test A1 preemergence, kochia
Description: as §1

[5] = system: Oat, Wild (wild oat, Avena fatua); test: Test A1 preemergence, Oat, Wild
Description: as §1

[6] = system: Pigweed, Palmer (palmer amaranth, palmer pigweed, Amaranthus palmeri); test: Test A1 preemergence, Pigweed, Palmer
Description: as §1

[7] = system: ragweed (common ragweed, Ambrosia artemisiifolia); test: Test A1 preemergence, ragweed
Description: as §1

[8] = system: Ryegrass, Italian (Italian ryegrass, Lolium multiflorum); test: Test A1 preemergence, Ryegrass, Italian
Description: as §1

soybean (Glycine max) [9] = test: Test A1 preemergence, soybean
Description: as §1

[10] = system: wheat (Triticum aestivum); test: Test A1 preemergence, wheat
Description: as §1

[11] = system: blackgrass (Alopecurus myosuroides); test: Test A1 postemergence, blackgrass; conditions: 0 to 100 scale (0 no effect, 100 complete control)
Description: as §1

corn (Zea mays) [12] = test: Test A1 postemergence, corn; conditions: 0 to 100 scale (0 no effect, 100 complete control)
Description: as §1

[13] = system: Foxtail, Giant (giant foxtail, Setaria faberi); test: Test A1 postemergence, Foxtail, Giant; conditions: 0 to 100 scale (0 no effect, 100 complete control)
Description: as §1

[14] = system: goosegrass (Eleusine indica); test: Test A1 postemergence, goosegrass; conditions: 0 to 100 scale (0 no effect, 100 complete control)
Description: as §1

kochia (Bassia scoparia) [15] = test: Test A1 postemergence, kochia; conditions: 0 to 100 scale (0 no effect, 100 complete control)
Description: as §1

[16] = system: Oat, Wild (wild oat, Avena fatua); test: Test A1 postemergence, Oat, Wild; conditions: 0 to 100 scale (0 no effect, 100 complete control)
Description: as §1

[17] = system: Pigweed, Palmer (palmer amaranth, palmer pigweed, Amaranthus palmeri); test: Test A1 postemergence, Pigweed, Palmer; conditions: 0 to 100 scale (0 no effect, 100 complete control)
Description: as §1

[18] = system: ragweed (common ragweed, Ambrosia artemisiifolia); test: Test A1 postemergence, ragweed; conditions: 0 to 100 scale (0 no effect, 100 complete control)
Description: as §1

[19] = system: Ryegrass, Italian (Italian ryegrass, Lolium multiflorum); test: Test A1 postemergence, Ryegrass, Italian; conditions: 0 to 100 scale (0 no effect, 100 complete control)
Description: as §1

soybean (Glycine max) [20] = test: Test A1 postemergence, soybean; conditions: 0 to 100 scale (0 no effect, 100 complete control)
Description: as §1

[21] = system: wheat (Triticum aestivum); test: Test A1 postemergence, wheat; conditions: 0 to 100 scale (0 no effect, 100 complete control)
Description: as §1

[22] = system: galium (catchweed bedstraw, Galium aparine); test: Test A1 postemergence, galium; conditions: 0 to 100 scale (0 no effect, 100 complete control)
Description: as §1

[23] = system: horseweed (Erigeron canadensis); test: Test A1 postemergence, horseweed; conditions: 0 to 100 scale (0 no effect, 100 complete control)
Description: as §1

[24] = system: barnyardgrass (Echinochloa crus-galli); test: Test B1 flooded paddy test, barnyardgrass; conditions: 250 g ai/ha, Flood, applied to paddy water, 2-leaf stage, visually evaluated after 10 to 14 days
Description: (§2) A dash (-) response means no test result.

[25] = system: ducksalad (Heteranthera limosa); test: Test B1 flooded paddy test, ducksalad; conditions: 250 g ai/ha, Flood, applied to paddy water, 2-leaf stage, visually evaluated after 10 to 14 days
Description: as §2

rice (Oryza sativa) = test: Test B1 flooded paddy test, rice; conditions: 250 g ai/ha, Flood, applied to paddy water, 2-leaf stage, visually evaluated after 10 to 14 days
Description: as §2

[26] = 31 g ai/ha, 0 to 100 scale (0 no effect, 100 complete control)
[27] = 125 g ai/ha, 0 to 100 scale, 0 no effect, 100 complete control
[28] = Postemergence, 125 g ai/ha, 10 days

## Cc1cc(C)c(N(COC(=O)C(C)(C)C)S(=O)(=O)C(F)(F)F)cc1C1=NOC(C(C)C)C1 (stereo not shown) [Compound 383]
Corn (Zea mays) [1]; [26]
  Plant response rating, Corn: 0
Corn (Zea mays) [1]; [27]
  Plant response rating, Corn: 0
[2]; [26]
  Plant response rating, Foxtail, Giant: 0
[2]; [27]
  Plant response rating, Foxtail, Giant: 20
[3]; [26]
  Plant response rating, Goosegrass: 0
[3]; [27]
  Plant response rating, Goosegrass: 80
Kochia (Bassia scoparia) [4]; [26]
  Plant response rating, Kochia: 0
Kochia (Bassia scoparia) [4]; [27]
  Plant response rating, Kochia: 0
[5]; [26]
  Plant response rating, Oat, Wild: 0
[5]; [27]
  Plant response rating, Oat, Wild: 30
[6]; [26]
  Plant response rating, Pigweed, Palmer: 0
[6]; [27]
  Plant response rating, Pigweed, Palmer: 0
[7]; [26]
  Plant response rating, Ragweed: 0
[7]; [27]
  Plant response rating, Ragweed: 0
[8]; [26]
  Plant response rating, Ryegrass, Italian: 0
[8]; [27]
  Plant response rating, Ryegrass, Italian: 40
Soybean (Glycine max) [9]; [26]
  Plant response rating, Soybean: 0
Soybean (Glycine max) [9]; [27]
  Plant response rating, Soybean: 0
[10]; [26]
  Plant response rating, Wheat: 20
[10]; [27]
  Plant response rating, Wheat: 20
[11]; 31 g ai/ha, postemergence
  Blackgrass plant response rating: 0
[11]; [28]
  Plant response rating, Blackgrass: 50
Corn (Zea mays) [12]; 31 g ai/ha, postemergence
  Corn plant response rating: 0
Corn (Zea mays) [12]; [28]
  Plant response rating, Corn: 0
[13]; 31 g ai/ha, postemergence
  Foxtail, Giant plant response rating: 0
[13]; [28]
  Plant response rating, Foxtail, Giant: 60
[14]; 31 g ai/ha, postemergence
  Goosegrass plant response rating: 0
[14]; [28]
  Plant response rating, Goosegrass: 20
Kochia (Bassia scoparia) [15]; 31 g ai/ha, postemergence
  Kochia plant response rating: 20
Kochia (Bassia scoparia) [15]; [28]
  Plant response rating, Kochia: 20
[16]; 31 g ai/ha, postemergence
  Oat, Wild plant response rating: 0
[16]; [28]
  Plant response rating, Oat, Wild: 10
[17]; 31 g ai/ha, postemergence
  Pigweed, Palmer plant response rating: 0
[17]; [28]
  Plant response rating, Pigweed, Palmer: 10
[18]; 31 g ai/ha, postemergence
  Ragweed plant response rating: 30
[18]; [28]
  Plant response rating, Ragweed: 40
[19]; 31 g ai/ha, postemergence
  Ryegrass, Italian plant response rating: 0
[19]; [28]
  Plant response rating, Ryegrass, Italian: 0
Soybean (Glycine max) [20]; 31 g ai/ha, postemergence
  Soybean plant response rating: 30
Soybean (Glycine max) [20]; [28]
  Plant response rating, Soybean: 50
[21]; 31 g ai/ha, postemergence
  Wheat plant response rating: 0
[21]; [28]
  Plant response rating, Wheat: 70
[22]; 31 g ai/ha, postemergence
  Galium plant response rating: 0
[22]; [28]
  Plant response rating, Galium: 60
[23]; 31 g ai/ha, postemergence
  Horseweed plant response rating: 0
[23]; [28]
  Plant response rating, Horseweed: 30
[24]
  Plant response rating, Barnyardgrass (0 to 100 scale, 0 is no effect, 100 is complete control): 98
[25]
  Plant response rating, Ducksalad (0 to 100 scale, 0 is no effect, 100 is complete control): 25
Rice (Oryza sativa)
  Plant response rating, Rice (0 to 100 scale, 0 is no effect, 100 is complete control): 10
